These results are taken from patent US4322340A, “Pharmacologically active peptides” (Eli Lilly and Company, priority 1980, dated 1982).

Where a name gives a salt, the structure may show the parent alone.

Series [1] concerns mouse. The series is described as follows: mouse locomotor activity test (physical dependence liability). In kind it is in vivo. As to conditions: group of ten mice. As for the experimental part:
A high correlation has been established between the degree of physical dependence liability of a compound and its ability to elicit mouse locomotor activity; Cf. Goldstein et al., The Journal of Pharmacology and Experimental Therapeutics 169, 175-184 (1969); Rethy et al., The Journal of Pharmacology and Experimental Therapeutics 176, 472-479 (1971); and Brase et al., The Journal of Pharmacology and Experimental Therapeutics 201(2), 368-374 (1977).
Mouse locomotor activity is measured using cylindrical cages of wire mesh 2 inches high and 11 inches in diameter. Six cages are enclosed in a ventilated, sound-attenuated chamber having uniform lighting. A light beam is passed through the center of the cage to a photocell on the opposite side. Two mice are placed in each cage for one hour to become acclimated to the surroundings. Five pairs of mice then are injected subcutaneously with a predetermined dose of the test compound, the remaining pair receiving saline carrier free of test compound. The mice are returned to their respective cages for three hours. The number of counts per each 15 minute period as well as the total number over the three hour period are recorded. Each interruption of the light beam constitutes a count.
The following Table II reflects a mean of the total counts for each group of ten mice tested using a particular compound and dose level.

In series [2] the test system is mouse. The series is described as follows: mouse hot plate test (analgesic activity). Conditions: subcutaneous injection, tested 15 minutes after administration, hot plate 52° C. Format: in vivo. As for the experimental part: In this test, an upright acrylic cylinder comprising, as its base, a hot plate surface which is maintained at 52° C. is used. A mouse is given, by subcutaneous injection, a predetermined amount of test compound dissolved or suspended in a suitable carrier, and, 15 minutes after administration of the test compound, the mouse is placed on the hot plate surface. The latency in seconds until the mouse jumps from the hot plate surface is measured. […] This must occur in a dose range which produces no motor incoordination or incapacitation. The following Table I records ED50 results obtained from this test. By the term "ED50 " is meant that dose which produces analgesia in 50% of the mice tested. Analgesia is defined as a response latency in the presence of test compound that is equal to or greater than the control response latency plus two standard deviations. The percent analgesia data are converted to probits, and the ED50 is calculated by regression analysis of the dose-response data. Each dose response curve must have at least four points, and each point is determined using data from a minimum of ten treated mice and ten control mice.

[3] abbreviates: Dose 128 mg./kg. subcutaneously.

Take `CCN(C(=O)CNC(=O)[C@@H](C)NC(=O)[C@H](Cc1ccc(O)cc1)NC)[C@@H](Cc1ccc(F)cc1)C(N)=O` [Me Et p-F, reference compound]: the “mean of the total counts, locomotor activity over three hours” value (shortened to “mean … over three hours”) in the series with mouse [1] (Dose 4 mg./kg. subcutaneously) is 431 counts; in the series with mouse [1] (Dose 8 mg./kg. subcutaneously) it was 1425 counts; with mouse [1] (Dose 16 mg./kg. subcutaneously) it was 2415 counts; with mouse [1] (Dose 32 mg./kg. subcutaneously), 2033 counts.
Consider `CCN(C(=O)CNC(=O)[C@@H](C)NC(=O)[C@H](Cc1ccc(O)cc1)NC)[C@@H](Cc1cccc(Br)c1)C(N)=O` [Example 2, L-(N-Methyl)tyrosyl-D-alanyl-glycyl-L-(N-ethyl)-m-bromophenylalanine Amide, Acetate Salt], for which the “mean … over three hours” value with mouse [1] (Dose 4 mg./kg. subcutaneously) was 142 counts; in the series with mouse [1] (Dose 8 mg./kg. subcutaneously) it was 235 counts; in the series with mouse [1] (Dose 16 mg./kg. subcutaneously), 358 counts; in the series with mouse [1] (Dose 32 mg./kg. subcutaneously), 701 counts; in the series on mouse [1] (Dose 64 mg./kg. subcutaneously), 2523 counts; in the series on mouse [1] (setting [3]) it was 5153 counts. Further, the “Analgesic Activity, Hot Plate Test, ED50” value in the series on mouse [2] was found to be 3 µg/kg.
`CCN(C(=O)CNC(=O)[C@@H](C)NC(=O)[C@@H](N)Cc1ccc(O)cc1)[C@@H](Cc1cccc(I)c1)C(N)=O` [Example 7, L-Tyrosyl-D-alanyl-glycyl-L-(N-ethyl)-m-iodophenylalanine Amide, Acetate Salt]: the “mean … over three hours” value is given as 178 counts with mouse [1] (Dose 4 mg./kg. subcutaneously); 174 counts in the series on mouse [1] (Dose 8 mg./kg. subcutaneously); 363 counts in the series on mouse [1] (Dose 16 mg./kg. subcutaneously); 852 counts in the series with mouse [1] (Dose 32 mg./kg. subcutaneously); 1630 counts in the series on mouse [1] (Dose 64 mg./kg. subcutaneously); 2871 counts in the series on mouse [1] (setting [3]). Besides, in the series with mouse [2], the “Analgesic Activity, Hot Plate Test, ED50” value came to 1.9 µg/kg.
Take `CCN(C(=O)CNC(=O)[C@@H](C)NC(=O)[C@@H](N)Cc1ccc(O)cc1)[C@@H](Cc1ccccc1)C(N)=O` [H Et H, reference compound]: the “mean … over three hours” value was found to be 704 counts with mouse [1] (Dose 4 mg./kg. subcutaneously), 1204 counts with mouse [1] (Dose 8 mg./kg. subcutaneously), 2916 counts in the series with mouse [1] (Dose 16 mg./kg. subcutaneously) and 3528 counts in the series with mouse [1] (Dose 32 mg./kg. subcutaneously).
Consider `CCN(C(=O)CNC(=O)[C@@H](C)NC(=O)[C@H](Cc1ccc(O)cc1)NC)[C@@H](Cc1cccc(C)c1)C(N)=O` [Example 4, L-(N-Methyl)tyrosyl-D-alanyl-glycyl-L-(N-ethyl)-m-methyl-phenylalanine Amide, Acetate Salt], for which the “mean … over three hours” value with mouse [1] (Dose 4 mg./kg. subcutaneously) was 173 counts; in the series with mouse [1] (Dose 8 mg./kg. subcutaneously), 255 counts; in the series on mouse [1] (Dose 16 mg./kg. subcutaneously), 537 counts; in the series on mouse [1] (Dose 32 mg./kg. subcutaneously), 1176 counts; in the series on mouse [1] (Dose 64 mg./kg. subcutaneously), 3231 counts; in the series with mouse [1] (setting [3]), 3852 counts. Moreover, the “Analgesic Activity, Hot Plate Test, ED50” value in the series on mouse [2] was 3 µg/kg.
As for `CCN(C(=O)CNC(=O)[C@@H](C)NC(=O)[C@H](Cc1ccc(O)cc1)NC)[C@@H](Cc1cccc(Cl)c1)C(N)=O` [Example 6, L-(N-Methyl)tyrosyl-D-alanyl-glycyl-L-(N-ethyl)-m-chlorophenylalanine Amide, Acetate Salt], the “mean … over three hours” value in the series on mouse [1] (Dose 4 mg./kg. subcutaneously) came out at 148 counts; in the series on mouse [1] (Dose 8 mg./kg. subcutaneously) it was 304 counts; in the series on mouse [1] (Dose 16 mg./kg. subcutaneously), 796 counts; with mouse [1] (Dose 32 mg./kg. subcutaneously), 1978 counts; in the series on mouse [1] (Dose 64 mg./kg. subcutaneously), 4477 counts; in the series on mouse [1] (setting [3]), 3476 counts. For the same molecule, in the series with mouse [2], the “Analgesic Activity, Hot Plate Test, ED50” value stood at 1.8 µg/kg.
With `CCN(C(=O)CNC(=O)[C@@H](C)NC(=O)[C@@H](N)Cc1ccc(O)cc1)[C@@H](Cc1cccc(Cl)c1)C(N)=O` [Example 5, L-Tyrosyl-D-alanyl-glycyl-L-(N-ethyl)-m-chlorophenylalanine Amide, Acetate Salt], the “mean … over three hours” value in the series with mouse [1] (Dose 4 mg./kg. subcutaneously) turned out to be 125 counts; in the series on mouse [1] (Dose 8 mg./kg. subcutaneously), 613 counts; in the series with mouse [1] (Dose 16 mg./kg. subcutaneously), 819 counts; with mouse [1] (Dose 32 mg./kg. subcutaneously), 2388 counts; with mouse [1] (Dose 64 mg./kg. subcutaneously), 3667 counts; in the series with mouse [1] (setting [3]), 2807 counts. Further, in the series on mouse [2], the “Analgesic Activity, Hot Plate Test, ED50” value amounted to 0.3 µg/kg.
Turning to `CN[C@@H](Cc1ccc(O)cc1)C(=O)N[C@H](C)C(=O)NCC(=O)N(CC1CC1)[C@@H](Cc1cccc(Br)c1)C(N)=O` [Example 1, L-(N-Methyl)tyrosyl-D-alanyl-glycyl-L-(N-cyclopropylmethyl)-m-bromophenylalanine Amide, Acetate Salt], the “mean … over three hours” value in the series on mouse [1] (Dose 4 mg./kg. subcutaneously) amounted to 171 counts; with mouse [1] (Dose 8 mg./kg. subcutaneously) it was 140 counts; in the series on mouse [1] (Dose 16 mg./kg. subcutaneously), 276 counts; in the series with mouse [1] (Dose 32 mg./kg. subcutaneously), 320 counts; in the series on mouse [1] (Dose 64 mg./kg. subcutaneously), 1888 counts; in the series with mouse [1] (setting [3]) it was 2159 counts.
For the molecule “L-Tyrosyl-D-alanyl-glycyl-L-(N-ethyl)-m-bromophenylalanine Amide, Acetate Salt [Example 3]”, the “mean … over three hours” value was 200 counts in the series with mouse [1] (Dose 8 mg./kg. subcutaneously), 512 counts in the series with mouse [1] (Dose 16 mg./kg. subcutaneously), 1092 counts in the series on mouse [1] (Dose 32 mg./kg. subcutaneously) and 2820 counts with mouse [1] (Dose 64 mg./kg. subcutaneously). Besides, the “Analgesic Activity, Hot Plate Test, ED50” value in the series on mouse [2] was 4.9 µg/kg.
